Experimental data taken from PMC7314547, “Echinoderms provide missing link in the evolution of PrRP/sNPF-type neuropeptide signalling” (eLife, 2020).
Entries after “also recorded” stand apart in the source; their conditions may differ. Where no end group is shown, it is not given here.

How the values were obtained:
[1] = test system: A. rubens sNPF/PrRP-type receptor Ar-sNPF/PrRPR; experiment: Receptor activation: luminescence of CHO-K1 cells expressing Ar-sNPF/PrRPR, Gα16 and apoaequorin-GFP fusion (G5A) (CHO-Ar-sNPF/PrRPR); assay type: cell-based, Asterias rubens; conditions: for luminescence response / receptor activation (in words): at least three independent experiments in triplicate
Protocol: A cDNA encoding Ar-sNPF/PrRPR was cloned and sequenced (Figure 3—figure supplement 1) and its sequence has been deposited in GenBank under accession number MH807444.1. […] The cloned receptor was then co-expressed with Gα16 in CHO-K1 cells expressing apoaequorin to produce the cell system CHO-Ar-sNPF/PrRPR. Synthetic ArPrRP (p[…]-NH2) was tested as a candidate ligand for Ar-sNPF/PrRPR at concentrations ranging from 10^−14 M to 10^−5 M, comparing with cells incubated in assay media without the addition of the peptide. […] Because ArPrRP contains a potential dibasic cleavage site (see underlined arginine residues in its sequence: p[…]-NH2), we hypothesised that the C-terminal pentapeptide of ArPrRP (LNPRFamide) may also be generated from ArPrRPP in vivo. Therefore, we also tested synthetic LNPRFamide as a candidate ligand for Ar-sNPF/PrRPR. […] Therefore, we conclude that the 22-residue amidated peptide ArPrRP is the natural ligand for Ar-sNPF/PrRPR in A. rubens.
Figure 5. A. rubens PrRP-like peptide ArPrRP acts as a ligand for the A. rubens sNPF/PrRP-type receptor Ar-sNPF/PrRPR. (A) The A. rubens PrRP-like peptide ArPrRP (10^−5 M; red bar) triggers luminescence in CHO-K1 cells expressing the A. rubens PrRP/sNPF-type receptor Ar-sNPF/PrRPR, the promiscuous G-protein Gα16 and the calcium-sensitive luminescent GFP-apoaequorin fusion protein G5A. For comparison, the background luminescence of cells that were not exposed to ArPrRP is shown (basal media; grey bar). Mean values (± S.E.M) were determined from three independent experiments performed in triplicate (B). Graph showing the selectivity of ArPrRP as a ligand for Ar-sNPF/PrRPR. […] Ar-sNPF/PrRPR is not activated by a C-terminal pentapeptide fragment of ArPrRP (LNPRFamide) or by the A. rubens luqin-type peptide ArLQ. Each point represents mean values (± S.E.M) from at least three independent experiments done in triplicate. The raw data for the experiments shown in Figure 5 and in Figure 5—figure supplement 2 can be found in Figure 5—source data 1. Figure 5—source data 1. Data for the graphs shown in Figure 5 and Figure 5—figure supplement 2. Figure 5—figure supplement 1. Predicted topology of Ar-sNPF/PrRPR. Seven predicted transmembrane domains are numbered successively in blue and two predicted N-glycosylation sites are shown with green boxes. This figure was generated using Protter (http://wlab.ethz.ch/protter/start/). [drawing 6] Figure 5—figure supplement 2. […] Each point represents mean values (± S.E.M.) from at least three independent experiments, with each experiment performed in triplicate. [drawing 7]
To enable the pharmacological characterisation of a candidate receptor for the A. rubens NPY/NPF/PrRP-like peptide, a cDNA encoding this receptor was cloned into the eukaryotic expression vector pcDNA 3.1(+) (Invitrogen; Cat. No. V790-20). To facilitate expression of the cloned receptor, the forward primer included a partial Kozak consensus sequence (ACC) and a sequence corresponding to the first 15 bases of the open reading frame of contig 1120879 (ACCATGCAGATGACAACC) and the reverse primer consisted of a stop codon and a sequence reverse complementary to the 3’ region of the open reading frame of contig 1120879 ([…]). PCR was performed using the forward primer and reverse primers, A. rubens radial nerve cord cDNA and Q5 polymerase (NEB; Cat. No. M0491S). […] Successful ligation and the direction of the insert was determined by restriction enzyme digestion and sequencing (TubeSeq service; Eurofins Genomics). […]

NPR-11 = conditions: ref Chalasani et al., 2010; cited from earlier work
From the text: The nematode C. elegans is a powerful model system for functional characterisation of neuropeptide signalling systems ([Frooninckx et al., 2012]). However, NPY/NPF-type signalling has thus far only been partially characterised in this species. […] However, this peptide shares little sequence similarity with NPY/NPF-typ ...

[2] = test system: CHO-K1 cells transfected with an empty pcDNA 3.1(+) vector; experiment: Control: luminescence of CHO-K1 (G5A) cells transfected with empty pcDNA 3.1(+) vector; assay type: cell-based, Cricetulus griseus; conditions: cells transfected with vector alone; at least three independent experiments in triplicate
Protocol: A cDNA encoding Ar-sNPF/PrRPR was cloned and sequenced (Figure 3—figure supplement 1) and its sequence has been deposited in GenBank under accession number MH807444.1. […] The cloned receptor was then co-expressed with Gα16 in CHO-K1 cells expressing apoaequorin to produce the cell system CHO-Ar-sNPF/PrRPR. Synthetic ArPrRP (p[…]-NH2) was tested as a candidate ligand for Ar-sNPF/PrRPR at concentrations ranging from 10^−14 M to 10^−5 M, comparing with cells incubated in assay media without the addition of the peptide. […] Because ArPrRP contains a potential dibasic cleavage site (see underlined arginine residues in its sequence: p[…]-NH2), we hypothesised that the C-terminal pentapeptide of ArPrRP (LNPRFamide) may also be generated from ArPrRPP in vivo. Therefore, we also tested synthetic LNPRFamide as a candidate ligand for Ar-sNPF/PrRPR. […]
Figure 5. […] (A) The A. rubens PrRP-like peptide ArPrRP (10^−5 M; red bar) triggers luminescence in CHO-K1 cells expressing the A. rubens PrRP/sNPF-type receptor Ar-sNPF/PrRPR, the promiscuous G-protein Gα16 and the calcium-sensitive luminescent GFP-apoaequorin fusion protein G5A. For comparison, the background luminescence of cells that were not exposed to ArPrRP is shown (basal media; grey bar). Mean values (± S.E.M) were determined from three independent experiments performed in triplicate (B). […]

Row | Substance | luminescence response / receptor activation (in words) [1] | receptor activation (in words) (NPR-11) | luminescence response (in words) [2] | ligand potency (in words) [1] | luminescence response relative to background (basal media) ([1]; 10^-5 M, mean of three independent experiments in triplicate) | EC50 ([1]; 10^-14 M to 10^-5 M in DMEM/F12, luminescence integrated over 30 s, four-parameter curve, at least three independent transfections in triplicate, read-out: EC50 (half-maximal response concentration))
1 | LNPRFamide [C-terminal pentapeptide of ArPrRP] | did not induce luminescence responses; also recorded: not activated | – | – | – | – | –
2 | MDANAFRMSF-NH2 | – | only showed activation at peptide concentrations of 10 and 30 µM | – | – | – | –
3 | pQDRSKAMQAERTGQLRRLNPRF-NH2 [ArPrRP, 22-residue amidated starfish PrRP-type neuropeptide, custom synthesised] | induced dose-dependent luminescence; also recorded: causes dose-dependent luminescence | – | no response; also recorded: does not trigger luminescence | potent ligand | approximately five times the background luminescence | 0.15 nM
